The assay concerns the target Beta-secretase 1 (Homo sapiens, UniProt P56817). The assay is described as follows: D3R2027.
Source text: D3R2027

pIC50: −log10 of the molar value.

Sequence of Beta-secretase 1 (P56817 whole entry): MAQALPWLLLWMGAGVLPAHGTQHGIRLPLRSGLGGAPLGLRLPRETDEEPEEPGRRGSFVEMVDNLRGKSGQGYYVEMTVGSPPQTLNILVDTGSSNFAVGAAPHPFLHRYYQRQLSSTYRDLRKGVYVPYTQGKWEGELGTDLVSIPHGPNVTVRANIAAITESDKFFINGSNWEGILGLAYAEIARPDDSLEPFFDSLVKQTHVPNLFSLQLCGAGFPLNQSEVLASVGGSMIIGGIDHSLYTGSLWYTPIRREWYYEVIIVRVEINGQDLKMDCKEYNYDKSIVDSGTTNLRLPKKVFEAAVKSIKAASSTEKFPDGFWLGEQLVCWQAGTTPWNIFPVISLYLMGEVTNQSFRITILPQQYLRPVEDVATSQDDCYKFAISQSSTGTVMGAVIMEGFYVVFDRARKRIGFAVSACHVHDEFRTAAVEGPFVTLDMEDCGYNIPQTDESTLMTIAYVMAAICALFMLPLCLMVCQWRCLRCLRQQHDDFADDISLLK

`CC(C)(C)Cc1cc(C(C)(C)NC[C@@H](O)[C@@H]2Cc3cccc(c3)OCCCCOc3cncc(c3)C(=O)N2)no1` [BACE_109]: the pIC50 was 8.35.

For `Cc1cc2cc(n1)OCCCCOc1cccc(c1)C[C@@H]([C@H](O)CNC(C)(C)c1cc(C(C)(C)C)sn1)NC2=O` [BACE_110], the pIC50 was 6.92.

The compound `Cc1cc2cc(n1)OCCCCOc1cccc(c1)C[C@@H]([C@H](O)CN[C@H]1CC(C)(C)Oc3ccc(C(C)C)cc31)NC2=O` [BACE_111] had a pIC50 of 8.52.

On to `Cc1cc2cc(n1)OCc1ccccc1COc1cccc(c1)C[C@@H]([C@H](O)CNC1(c3cccc(C(C)C)c3)CC1)NC2=O` [BACE_112], for which the negative logarithm of the IC50 (pIC50) is 5.85.

Regarding `Cc1cc2cc(n1)CCCCCc1cccc(c1)C[C@@H]([C@H](O)CNCc1cccc(C(C)C)c1)NC2=O` [BACE_113], the pIC50 was 5.80. `CC(C)c1cccc(C(C)(C)NC[C@@H](O)[C@@H]2Cc3cccc(c3)OCCCCNc3cncc(c3)C(=O)N2)c1` [BACE_114] gave a pIC50 of 7.24.

`CC(C)c1cccc(C(C)(C)NC[C@@H](O)[C@@H]2Cc3cccc(c3)CCCCNc3cccc(c3)C(=O)N2)c1` [BACE_115] showed a pIC50 of 6.54. `CC(C)c1cccc(C(C)(C)NC[C@@H](O)[C@@H]2Cc3cc(F)c(N)c(c3)CCCCNc3cccc(c3)C(=O)N2)c1` [BACE_116] showed a negative logarithm of the IC50 (pIC50) of 6.92.

Take `COCc1cc2cc(c1)C(=O)N[C@H]([C@H](O)CNC(C)(C)c1cc(CC(C)(C)C)on1)Cc1cccc(c1)OCCCCN2` [BACE_117]: the negative-log IC50 (pIC50) was 8.19. On to `CC(C)c1cccc(CNC[C@@H](O)[C@@H]2Cc3cccc(c3)CCCCN(C)c3cccc(c3)C(=O)N2)c1` [BACE_118], for which the pIC50 was 6.00.

Consider `CC(C)(C)c1ccnc(C2(NC[C@@H](O)[C@@H]3Cc4cccc(c4)CCCCNc4cc(cc(-c5ncco5)c4)C(=O)N3)CC2)c1` [BACE_119], for which the pIC50 was 8.82. Take `CC(C)(NC[C@@H](O)[C@@H]1Cc2cccc(c2)CCCCNc2cncc(c2)C(=O)N1)c1cccc(Br)c1` [BACE_120]: the pIC50 was 6.23. `CC(C)(NC[C@@H](O)[C@@H]1Cc2cccc(c2)CCCCNc2cc(c[n+](Cc3ccccc3)c2)C(=O)N1)c1cccc(Br)c1` [BACE_121]: the pIC50 is 5.44.

With `CC(C)c1cccc(C(C)(C)NC[C@@H](O)[C@@H]2Cc3cccc(c3)OCCCCNc3cccc(n3)C(=O)N2)c1` [BACE_122], the pIC50 was 5.64. In turn, `CC(C)Cc1cncc(C(C)(C)NC[C@@H](O)[C@@H]2Cc3cccc(c3)OCCCCNc3cccc(c3)C(=O)N2)c1` [BACE_123] showed a pIC50 of 6.59. With `COCc1cc2cc(c1)C(=O)N[C@H]([C@H](O)CNC(C)(C)c1cc(C(C)(C)C)ccn1)Cc1cccc(c1)OCCCCN2` [BACE_124], the pIC50 is 7.60. Under `C[C@H](NC[C@@H](O)[C@@H]1Cc2cccc(c2)OCCCCOc2cncc(c2)C(=O)N1)c1cc(CC(C)(C)C)on1` [BACE_125] stands 8.22; under `COCc1cc2cc(c1)C(=O)N[C@H]([C@H](O)CN)Cc1cccc(c1)OCCCCN2` [BACE_126], 4.89. `COCc1cc2cc(c1)C(=O)N[C@H]([C@H](O)CNCc1cnn(CC(C)C)c1)Cc1cccc(c1)OCCCCN2` [BACE_127]: the pIC50 is 7.00. `COCc1cc2cc(c1)C(=O)N[C@H]([C@H](O)CN[C@H]1CC(C)(C)Oc3ccc(C(C)C)cc31)Cc1cccc(c1)OCCCCN2` [BACE_128] showed a pIC50 of 8.60. Regarding `COCc1cc2cc(c1)C(=O)N[C@H]([C@H](O)CNCc1cc(CC(C)(C)C)on1)Cc1cccc(c1)OCCCCN2` [BACE_129], the negative logarithm of the IC50 (pIC50) was 7.85. Under `COc1ccc2cc1OCCCCNc1cc(CO)cc(c1)C(=O)N[C@H]([C@H](O)CNCc1cccc(C(C)C)c1)C2` [BACE_130] stands 6.02. As for `CN(C)C(=O)c1cc2cc(c1)C(=O)N[C@H]([C@H](O)CNC1(c3cccc(C(C)(C)C)c3)CC1)Cc1ccc(F)c(c1)OC/C=C\CN2` [BACE_131], the negative logarithm of the IC50 (pIC50) was 7.39. Turning to `CC(C)c1cccc(CNC[C@@H](O)[C@@H]2Cc3cccc(c3)CCCCOc3cc(cc(-c4ncco4)c3)C(=O)N2)c1` [BACE_132], the pIC50 is 6.60. `CC(=O)COc1cc2cc(c1)C(=O)N[C@H]([C@H](O)CNC1(c3cc(C(C)(C)C)ccn3)CC1)Cc1cccc(c1)CCCCO2` [BACE_133] gave a pIC50 of 8.70. `COC(=O)c1cc2cc(c1)C(=O)N[C@H]([C@H](O)CNCc1cccc(C(C)C)c1)Cc1cccc(c1)CCCCO2` [BACE_134]: the pIC50 is 6.74. `CC(=O)COc1cc2cc(c1)C(=O)N[C@H]([C@H](O)CNCc1cc(C(C)(C)C)ccn1)Cc1cccc(c1)CCCCO2` [BACE_135]: the pIC50 is 8.00.

The compound `CC(C)c1ccnc(CNC[C@@H](O)[C@@H]2Cc3cccc(c3)CCCCOc3cc(cc(N4CCCC4=O)c3)C(=O)N2)c1` [BACE_136] showed a pIC50 of 7.57. As for `CC(C)c1cccc(CNC[C@@H](O)[C@@H]2Cc3cccc(c3)CCCCOc3cncc(c3)C(=O)N2)c1` [BACE_137], the figure is 6.32.

Turning to `CC(C)(NC[C@@H](O)[C@@H]1Cc2cccc(c2)OCCCCOc2cncc(c2)C(=O)N1)c1cccc(Br)c1` [BACE_138], the pIC50 is 6.54.

`CC(C)c1ccnc(CNC[C@@H](O)[C@@H]2Cc3cccc(c3)OCCCCOc3cccc(c3)C(=O)N2C)c1` [BACE_139] had a pIC50 of 4.43. In the case of `COCc1cc2cc(c1)C(=O)N[C@H]([C@H](O)CNC1(c3cccc(C(C)C)c3)CC1)Cc1cccc(c1)OCCCO2` [BACE_140], the negative logarithm of the IC50 (pIC50) is 7.11. Under `CCc1cc(CNC[C@@H](O)[C@@H]2Cc3cccc(c3)OCCCCOc3cc(cc(C(=O)N(C)C)c3)C(=O)N2)ncn1` [BACE_141] stands 5.77; under `COc1cc2cc(c1)C1=N[C@@H](C[C@H](C)CCCCCCCN2)[C@H](CO)O1` [BACE_142], 5.35; under `C[C@@H]1CCCCCCCCC(=O)N(C)[C@@H](C)C(=O)N[C@H]([C@H](O)CO)C1` [BACE_143], 4.21. `COCc1cc2cc(c1)C(=O)O[C@@H](CNC1(c3cccc(C(C)C)c3)CC1)[C@@H](N)Cc1cccc(c1)OCCCCN2` [BACE_144] showed a pIC50 of 5.19. `CCCNc1cc(COC)cc(C(=O)N[C@@H](Cc2cccc(OC)c2)[C@H](O)CNC2(c3cccc(C(C)C)c3)CC2)c1` [BACE_145]: the pIC50 was 5.92.

With `CCCNc1cc(COC)cc(C(=O)N[C@@H](Cc2cccc(OC)c2)[C@H](O)CNCc2cccc(C(C)C)c2)c1` [BACE_146], the pIC50 is 5.51. With `CCCCNC(=O)[C@H](C)C[C@H](O)[C@@H]1C[C@H](C)CCCC[C@H](C)CCC(=O)N[C@@H](C)C(=O)N1` [BACE_147], the pIC50 was 6.04. `CCCCNC(=O)[C@H](C)C[C@H](O)[C@@H]1C[C@H](C)CCCCC[C@H](C)CCC(=O)N(C)[C@@H](C)C(=O)N1` [BACE_148] had a negative logarithm of the IC50 (pIC50) of 7.39. `CCCCNC(=O)[C@H](C)C[C@H](O)[C@@H]1C[C@H](C)CCCCCCC[C@H](NC(=O)OC(C)(C)C)C(=O)N[C@@H](C)C(=O)N1` [BACE_149]: the pIC50 is 8.52. As for `CCCCNC(=O)[C@H](C)C[C@H](O)[C@@H]1C[C@H](C)CCCCCCC[C@H](NC(=O)c2ccncc2)C(=O)N[C@@H](C)C(=O)N1` [BACE_150], the pIC50 is 9.30. The compound `CCCCNC(=O)[C@H](C)C[C@H](O)[C@@H]1C[C@H](C)CCCCCCCCS(=O)(=O)C[C@@H](C)C(=O)N1` [BACE_151] showed a pIC50 of 6.25. For the compound `CCCCNC(=O)[C@H](C)C[C@H](O)[C@@H]1C[C@H](C)CCCCCCNc2cc(cc(OC)n2)C(=O)N1` [BACE_152], the pIC50 was 6.34.

For `CCCCNC(=O)[C@H](C)C[C@H](O)[C@@H]1Cc2cccc(c2)OCCCCCC(=O)N[C@@H](C)C(=O)N1` [BACE_153], the pIC50 was 6.16. Compound `CCCCNC(=O)[C@H](C)C[C@H](O)[C@@H]1Cc2cccc(c2)CCCCCNc2cc(cc(OC)n2)C(=O)N1` [BACE_154] gave a pIC50 of 6.89. Turning to `CCCCNC(=O)[C@H](C)C[C@H](O)[C@@H]1Cc2cccc(c2)CCCCNc2cc(cc(C)n2)C(=O)N1` [BACE_155], the pIC50 is 6.62. In turn, `CCCCNC(=O)[C@H](C)C[C@H](O)[C@@H]1Cc2cccc(c2)OCCCCS(=O)(=O)C[C@@H](C)C(=O)N1` [BACE_156] showed a pIC50 of 6.96. Under `CCCCNC(=O)[C@H](C)C[C@H](O)[C@@H]1Cc2ccc(O)c(c2)Cc2ccccc2OCC(=O)N[C@@H](C)C(=O)N1` [BACE_157] stands 6.92; under `CCCCNC(=O)[C@H](C)C[C@H](O)[C@@H]1Cc2ccc(O)c(c2)Cc2ccccc2OCCCCC(=O)N1` [BACE_158], 5.40.

Usually pIC50 stands for the negative decadic logarithm of the IC50, by convention in mol/L. Read a high pIC50 as a small IC50.

(Values after BindingDB's records for doi:10.7270/Q2N301S8 (D3R/Abbott, 2020).)
